Legend:
[1] = general Swedish population (Ronneby, 106 Swedes) with high exposure through drinking water, 2 y follow-up from 6 months after clean water; ref Li et al. 2018; cited from earlier work
[2] = Individual serum elimination rate and half-life (linear regression per employee); details: individual estimate;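 as to HL (half-life): half-life in years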
Description: Serum PFAS concentrations were log-transformed. Time was calculated as the elapsed days between supply of clean bottled water and […] blood sampling. We assumed one compartment, first-order elimination kinetics. In this kinetic model, the body is considered as one homogeneous volume in which mixing is instantaneous and from which PFAS could be absorbed, transferred, and eliminated according to the rate of elimination that is proportional to the concentration of PFAS in the body. Two methods were used to estimate serum elimination rate constant (k) and half-life for each PFAS:
Method 2: For estimation of individual k, linear regression was used to derive the slope ( β ) of the logarithm of serum concentrations vs. time for each employee. The negative value of the slope ( −β ) for each individual was equivalent to the individual k, and individual serum elimination half-life was calculated as ln2/k for each PFAS. If β was positive (i.e., PFAS concentrations tended to increase over the five samplings), the half-life was not calculated.

[3] = PFAS levels in urine samples of airport employees, specific-gravity adjusted (LC/MS/MS); type: in vivo, human
Description: Only one employee provided a single urine sample. […] All employees provided written informed consent.
The samples were thawed 1–2 h, then mixed by vortex shaker and manual turning. […] For the urine samples, 50μL urine was mixed with 25μL of methanol and 25μL of a 50% acetonitrile solution containing isotopically labeled internal standards (see Table S1). Then samples were shaken vigorously for 30 min and centrifuged at 3,000×g for 10 min at room temperature.
Aliquots of 20μL of the sample were analyzed using LC/MS/MS. […] The analysis was performed in negative ion mode. The ion source temperature was at 350°C.
(§1) Urinary PFAS concentrations were specific-gravity adjusted. The ratio of urine and serum concentration for each PFAS (urine/serum ratio) at each sampling was calculated based on PFAS concentrations in paired serum and urine samples from 17 employees. Then the personal average urine/serum ratio was calculated using the mean value of repeated samplings for each employee.

[4] = Population average serum elimination rate and half-life (linear mixed model, one compartment, first-order); details: for Constant elimination rate (95% CI) / Half-life (95% CI): population average
Method in brief: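 Log-transformed serum PFAS fitted with a linear mixed model (random intercept only; age and sex as covariates), assuming one-compartment first-order elimination. Time counted in days from clean-water supply to first sampling. k is the negative average slope; half-life = ln2/k; sensitivity run after subtracting reference-population median background.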

Serum/water ratio = type: in vivo, human; details: median serum level of first samples (26 employees) divided by airport drinking-water level
Description: The ratio of serum and water concentration for each PFAS (serum/water ratio) was calculated based on median serum level in the first serum sample obtained from all 26 airport employees divided by the drinking-water concentration. This ratio is an indicator of PFAS accumulation in body.

[5] = Urine/serum ratio in paired samples; type: in vivo, human; details: mean of four paired samplings per subject, 17 airport employees
Description: as §1

[6] = 2nd sampling (October 2018), count 17
[7] = 3rd sampling (November, 2018), count 16
[8] = 4th sampling (December 2018), count 14
[9] = 5th sampling (January 2019), count 12
[10] = model with original serum levels, age and sex as covariates
[11] = model with serum levels after subtraction of background exposure (sensitivity analysis)

**Q.** With `O=S(=O)(O)C(F)(F)C(F)(F)C(F)(F)C(F)(F)C(F)(F)C(F)(F)C(F)(F)C(F)(F)F` [L-PFOS, linear perfluorooctane sulfonic acid] as the molecule, how does the Average half-life [1] read?
**A.** 3.4 y

**Q.** What about the Elimination rate ([2]; subject 1, 5 samples) of the same molecule?
**A.** −0.2 yearly

**Q.** What about the Elimination rate ([2]; subject 2, 5 samples) of the same molecule?
**A.** 0.4 yearly

**Q.** And the “HL (half-life)” value ([2]; subject 2, 5 samples)?
**A.** 1.7 year

**Q.** And the Elimination rate ([2]; subject 3, 5 samples)?
**A.** 0.5 yearly

**Q.** And the “HL (half-life)” value ([2]; subject 3, 5 samples)?
**A.** 1.3 year

**Q.** What about the Elimination rate ([2]; subject 4, 5 samples) of the same molecule?
**A.** −0.3 yearly

**Q.** And the Elimination rate ([2]; subject 5, 5 samples)?
**A.** 0.6 yearly

**Q.** And the “HL (half-life)” value ([2]; subject 5, 5 samples)?
**A.** 1.2 year

**Q.** What about the Elimination rate ([2]; subject 6, 4 samples) of the same molecule?
**A.** 0.04 yearly

**Q.** What about the “HL (half-life)” value ([2]; subject 6, 4 samples) of the same molecule?
**A.** 17 year

**Q.** And the Elimination rate ([2]; subject 7, 5 samples)?
**A.** 0.006 yearly

**Q.** What about the Elimination rate ([2]; subject 8, 5 samples) of the same molecule?
**A.** −0.4 yearly

**Q.** And the Elimination rate ([2]; subject 9, 5 samples)?
**A.** 0.4 yearly

**Q.** And the “HL (half-life)” value ([2]; subject 9, 5 samples)?
**A.** 1.8 year

**Q.** What about the Elimination rate ([2]; subject 10, 5 samples) of the same molecule?
**A.** −0.2 yearly

**Q.** What about the Elimination rate ([2]; subject 11, 5 samples) of the same molecule?
**A.** 0.1 yearly

**Q.** And the “HL (half-life)” value ([2]; subject 11, 5 samples)?
**A.** 4.7 year

**Q.** What about the Elimination rate ([2]; subject 12, 5 samples) of the same molecule?
**A.** 0.8 yearly

**Q.** And the “HL (half-life)” value ([2]; subject 12, 5 samples)?
**A.** 0.9 year

**Q.** What about the Elimination rate ([2]; subject 13, 5 samples) of the same molecule?
**A.** 0.2 yearly

**Q.** And the “HL (half-life)” value ([2]; subject 13, 5 samples)?
**A.** 3.7 year

**Q.** What about the Elimination rate ([2]; subject 14, 4 samples) of the same molecule?
**A.** 0.3 yearly

**Q.** What about the “HL (half-life)” value ([2]; subject 14, 4 samples) of the same molecule?
**A.** 2.0 year

**Q.** What about the Elimination rate ([2]; subject 15, 5 samples) of the same molecule?
**A.** 0.5 yearly

**Q.** And the “HL (half-life)” value ([2]; subject 15, 5 samples)?
**A.** 1.3 year

**Q.** What about the Elimination rate ([2]; subject 16, 5 samples) of the same molecule?
**A.** 0.6 yearly

**Q.** What about the “HL (half-life)” value ([2]; subject 16, 5 samples) of the same molecule?
**A.** 1.2 year

**Q.** And the Elimination rate ([2]; subject 17, 5 samples)?
**A.** 0.3 yearly

**Q.** And the “HL (half-life)” value ([2]; subject 17, 5 samples)?
**A.** 2.1 year

**Q.** What about the “Specific gravity adjusted urinary level, 25 percentile” value [3, 6] of the same molecule?
**A.** < LOD

**Q.** And the “Specific gravity adjusted urinary level, 75 percentile” value [3, 6]?
**A.** 0.01 ng/mL

**Q.** What about the “Specific gravity adjusted urinary level, Max” value [3, 6] of the same molecule?
**A.** 0.08 ng/mL

**Q.** And the “Specific gravity adjusted urinary level, Median” value [3, 6]?
**A.** < LOD

**Q.** And the “Specific gravity adjusted urinary level, Min” value [3, 6]?
**A.** < LOD

**Q.** And the “Specific gravity adjusted urinary level, 25 percentile” value [3, 7]?
**A.** < LOD

**Q.** And the “Specific gravity adjusted urinary level, 75 percentile” value [3, 7]?
**A.** 0.02 ng/mL

**Q.** And the “Specific gravity adjusted urinary level, Max” value [3, 7]?
**A.** 0.03 ng/mL

**Q.** What about the “Specific gravity adjusted urinary level, Median” value [3, 7] of the same molecule?
**A.** 0.01 ng/mL

**Q.** What about the “Specific gravity adjusted urinary level, Min” value [3, 7] of the same molecule?
**A.** < LOD

**Q.** What about the “Specific gravity adjusted urinary level, 25 percentile” value [3, 8] of the same molecule?
**A.** < LOD

**Q.** And the “Specific gravity adjusted urinary level, 75 percentile” value [3, 8]?
**A.** 0.02 ng/mL

**Q.** What about the “Specific gravity adjusted urinary level, Max” value [3, 8] of the same molecule?
**A.** 0.05 ng/mL

**Q.** And the “Specific gravity adjusted urinary level, Median” value [3, 8]?
**A.** < LOD

**Q.** And the “Specific gravity adjusted urinary level, Min” value [3, 8]?
**A.** < LOD

**Q.** What about the “Specific gravity adjusted urinary level, 25 percentile” value [3, 9] of the same molecule?
**A.** < LOD

**Q.** What about the “Specific gravity adjusted urinary level, 75 percentile” value [3, 9] of the same molecule?
**A.** 0.01 ng/mL

**Q.** And the “Specific gravity adjusted urinary level, Max” value [3, 9]?
**A.** 0.04 ng/mL

**Q.** What about the “Specific gravity adjusted urinary level, Median” value [3, 9] of the same molecule?
**A.** < LOD

**Q.** And the “Specific gravity adjusted urinary level, Min” value [3, 9]?
**A.** < LOD

**Q.** And the “Constant elimination rate (95% CI)” value [4, 10]?
**A.** 0.24 (0.07, 0.4) yearly

**Q.** And the “Half-life (95% CI)” value [4, 10]?
**A.** 2.91 (1.71, 9.63) year

**Q.** And the “Constant elimination rate (95% CI)” value [4, 11]?
**A.** 0.41 (0.11, 0.71) yearly

**Q.** And the “Half-life (95% CI)” value [4, 11]?
**A.** 1.69 (0.98, 6.04) year

**Q.** And the “Reduction of half-life estimation after subtraction of background levels” value ([4]; sensitivity analysis vs model with original serum levels)?
**A.** 42%

**Q.** And the Serum/water ratio (Serum/water ratio)?
**A.** 153

**Q.** And the “Personal average urine/serum ratio, median (range)” value [5]?
**A.** 0.00092 (0.000035–0.0056)
